From publication PMC5137965 (Future Science OA, 2016)

Columns and labels:
[1] = Blood stability (sample collection process stability) at room temperature; assay type: in vitro ADME, human; conditions: 2.45 h at room temperature
[2] = Stability of spiked human plasma QC samples (bench top, freeze-thaw, autosampler, long-term); assay type: in vitro ADME; conditions: for Auto sampler stability (100.87 h), %Nominal, stability QC samples: processed samples
[3] = Stock and working solution stability; assay type: physicochemical; conditions: for Short-term stability, %Stability: 8.46 h at room temperature; for Stock solution stability, %Stability: 21 days, stock solutions in methanol stored at refrigerator temperature 1–10°C; for working solutions found stable for: room temperature
Method: Separate stock solutions were used to prepare calibration curve (CC) standards and quality (QC) control samples. The prepared stock solutions were protected from light and stored in refrigerator between 1–10°C until use. A fresh working solution of IS (1500.00 ng/ml) was prepared everyday by taking appropriate dilution of the stock solution in methanol:water (50:50 v/v).
Stock solution stability of both analyte and internal standard was carried out for 21 days at refrigerated temperature (1–10°C). Short-term stability both analyte and internal standard was carried out for 8.46 h at room temperature.

[4] = cited from earlier work
[5] = human plasma, low concentration QC

| %Stability ([1]; HQC) | %Stability ([1]; LQC) | processed samples stable in auto sampler for ([2]; at 10°C) | Bench top stability during extraction (9.60 h), %Nominal, stability QC samples ([2]; high concentration QC) | bench top stability in matrix ([2]; human plasma, 6.15 h) | comparative freeze-thaw stability at the end of third freeze and thaw cycle ([2]; human plasma, below -15°C and below -50°C) | Freeze thaw stability (three freeze thaw cycles, below -50°C), %Nominal, stability QC samples ([2]; human plasma, high concentration QC) | Bench top stability in matrix (6.15 h), %Nominal, stability QC samples [2, 5] | Freeze thaw stability (three freeze thaw cycles, below -15°C), %Nominal, stability QC samples [2, 5] | Freeze thaw stability (three freeze thaw cycles, below -50°C), %Nominal, stability QC samples [2, 5] | Bench top stability during extraction (9.60 h), %Nominal, stability QC samples ([2]; low concentration QC) | Auto sampler stability (100.87 h), %Nominal, stability QC samples ([2]; high concentration QC) | Auto sampler stability (100.87 h), %Nominal, stability QC samples ([2]; low concentration QC) | Short-term stability, %Stability [3] | Stock solution stability, %Stability [3] | working solutions found stable for [3] | stock solution found stable for ([3]; stored in refrigerator between 1 and 10°C) | SMILES | permeability ([4]; inferred from almost complete oral absorption) | Tmax ([4]; oral) |
| --- | --- | --- | --- | --- | --- | --- | --- | --- | --- | --- | --- | --- | --- | --- | --- | --- | --- | --- | --- |
| 99.27% | 100.72% | 100.87 h | 98.96% | 97.75 to 100.23% | 97.45 to 101.41% | 102.3% | 96.03% | 97.16% | 97.03% | 94.80% | 102.61% | 98.34% | 101.88% | 101.63% | 16 h | 21 days | Cc1ccc(NC(=O)c2ccc(CN3CCN(C)CC3)cc2)cc1Nc1nccc(-c2cccnc2)n1 [imatinib] | high permeability | 2 to 4 h |
| – | – | – | – | – | – | – | – | – | – | – | – | – | 100.96% | 99.15% | 16 h | – | [2H]c1c([2H])c(C(=O)Nc2ccc(C)c(Nc3nccc(-c4cccnc4)n3)c2)c([2H])c([2H])c1CN1CCN(C)CC1 [imatinib-D4] | – | – |
